Measured values: patent US20210379099A1 (priority 2020, published 2021)
Entries after “also recorded” stand apart in the source; their conditions may differ.

What was measured:
[1] = format: binding; conditions: read-out: Kd (Me4CB[8]•guest)
[2] = system: PCP-induced hyperlocomotion; assay: In vivo reversal of PCP-induced hyperlocomotion (open field, locomotion counts); design: species or system mice; conditions: listed as PCP

Row | Structure (SMILES) | Kd [1] | locomotion counts, PCP alone ([2]; experiment 1, male Swiss Webster mice n=8, PCP 2 mg/kg, 0.2 mL infusion, vs saline, Me4CB[8] alone, premix) | locomotion counts, PCP alone ([2]; experiment 2, male Swiss Webster mice n=9, PCP 1.95 mg/kg, vs saline and sequential infusions)
1 | CNC1(c2ccccc2Cl)CCCCC1=O (stereo not shown) [Ketamine 7, Ketamine] | 36 nM |  | 
2 | c1ccc(C2(N3CCCCC3)CCCCC2)cc1 [PCP 8, Phencyclidine] | 2 nM | increased locomotion significantly; also recorded: significant increase in locomotion counts | significantly increased locomotion counts; also recorded: significant increase in locomotion counts
